What all share (test): NCI-60 cell line screen, 48 h
The test system of test [1] is SNB-19.
The subject of test [2] is SF-539.
Test [3] has as its system SF-268.
The test system of test [4] is ACHN.
Test [5] concerns HL-60.
Test [6] deals with SK-MEL-5.
The subject of test [7] is EKVX.
For test [8], the system named is UACC-62.
In test [9] the test system is K562.
The test system of test [10] is NCI-H23.
For test [11], the system named is NCI-H226.
For test [12], the system named is HOP-62.
Test [13] relates to OVCAR-4.
For test [14], the system named is HCT-15.
Test [15] has as its system MDA-N.
In test [16] the test system is T47D.
Test [17] has as its system SW-620.
In test [18] the test system is BT-549.
Test [19] deals with OVCAR-8.
In test [20] the test system is NCI/ADR-RES.

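All cell lines were grown in 96-well plates and treated with compound for 48 hours. Here, GI50 denotes the concentration required for 50% inhibition of growth.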 Active and inactive are the calls of the source. No stated cut-off is given here; in the data, active = GI50 up to about 1.1 µM and inactive = higher.

For the compound `CCOC(=O)c1cc2cc(C)cc(C(=O)c3ccc([N+](=O)[O-])cc3)c2[nH]1`, the GI50 in [1], in test [2], in [3], in [4], in test [5] and in test [6] was > 100 µM (inactive) in each case. For the same compound, the GI50 in test [7] is > 100 µM (inactive); in [8] it was > 100 µM (inactive); in [9] it was > 100 µM (inactive); in test [10], > 100 µM (inactive); in test [11] it was > 100 µM (inactive); in test [12] it was 33.4 µM (inactive). For the same compound, the GI50 in [13] is > 100 µM (inactive); in test [14], > 100 µM; in [15], > 100 µM (inactive); in test [16], > 100 µM (inactive); in [17], > 100 µM (inactive); in [18] it was > 100 µM (inactive).

In the case of `CCOC(=O)N(C)CCC1CC=CC(=O)C1c1cccc(OC)c1OC` (stereo not given), the GI50 in test [1] was 23.3 µM (inactive); in test [19] it was 21.3 µM (inactive); in test [2], 9.91 µM (inactive); in test [3], 19.9 µM (inactive); in test [4], 34 µM (inactive); in [5], 19.4 µM (inactive). Moreover, the GI50 was 9.53 µM (inactive) in test [6]; 25.8 µM (inactive) in test [7]; 15.6 µM (inactive) in test [8]; 23.2 µM (inactive) in test [9]; 14 µM (inactive) in test [10]; 24.4 µM (inactive) in test [12]. The GI50 in test [13] was 28 µM (inactive); in test [14] it was 14 µM; in test [15], 13.1 µM (inactive); in test [16], 21.4 µM (inactive); in test [17], 20.9 µM (inactive); in [18], 15 µM (inactive). In addition, the GI50 in test [20] is 19.8 µM (inactive).

On to `CC12CN(CC[N+](C)(C)C)CC1(C)C1CCC2O1` (stereo not given), for which the GI50 in test [1], in [19], in test [2], in test [3], in test [4] and in test [6] was > 100 µM (inactive) throughout. The GI50 in test [7], in test [8], in test [9], in test [10], in [11] and in test [12] was > 100 µM (inactive) in each case. For the same compound, the GI50 was > 100 µM (inactive) in [13]; > 100 µM in test [14]; > 100 µM (inactive) in test [16]; > 100 µM (inactive) in test [17]; > 100 µM (inactive) in test [18]; > 100 µM (inactive) in test [20].

Consider `N#Cc1c(C#N)c(-c2ccco2)n(/N=C/c2ccco2)c1N`, for which the GI50 was 24.9 µM (inactive) in test [1]; 23.3 µM (inactive) in test [19]; 23.9 µM (inactive) in test [2]; 28.2 µM (inactive) in test [3]; > 100 µM (inactive) in test [4]; > 100 µM (inactive) in test [5]. The GI50 in test [6] is > 100 µM (inactive); in test [7] it was 20.1 µM (inactive); in test [8], > 100 µM (inactive); in test [9], > 100 µM (inactive); in [10], > 100 µM (inactive); in test [11], 18.8 µM (inactive). Further, the GI50 was 28.1 µM (inactive) in test [12]; 76.9 µM (inactive) in test [13]; 29.6 µM in [14]; 2.93 µM (inactive) in test [16]; > 100 µM (inactive) in test [17]; 22.8 µM (inactive) in test [18]. Besides, the GI50 in [20] is 65.9 µM (inactive).

With `O=C(O[C@H]1CCN2C[C@H]3C[C@H](CN4C(=O)CCC[C@H]34)[C@@H]2C1)c1ccc(O)cc1`, the GI50 in test [1], in test [19], in test [2], in test [3], in [4] and in test [7] was > 100 µM (inactive) each time. The GI50 in test [8], in test [9], in [10], in test [11], in test [12] and in [13] was > 100 µM (inactive) each time. The GI50 in test [14] is > 100 µM; in test [15] it was > 100 µM (inactive); in [16], > 100 µM (inactive); in test [17] it was > 100 µM (inactive); in test [18], > 100 µM (inactive).

`O=C(CN1CCOCC1)NC1=Nc2ncccc2C(=O)NN1`: the GI50 in test [1], in [19], in test [2], in test [3], in [4] and in test [5] was > 10 µM (inactive) each time. In addition, the GI50 in test [6], in test [7], in test [8], in test [9], in [10] and in test [11] was > 10 µM (inactive) each time. In addition, the GI50 in test [12] was > 10 µM (inactive); in [14] it was > 10 µM; in test [15], > 10 µM (inactive); in test [16] it was > 10 µM (inactive); in test [17], > 10 µM (inactive); in [18], > 10 µM (inactive).

For the compound `[N-]=[N+]=Nc1nc2ccccc2c(N=[N+]=[N-])c1Cl`, the GI50 was > 100 µM (inactive) in [1]; 96.8 µM (inactive) in [2]; > 100 µM (inactive) in [3]; > 100 µM (inactive) in [4]; > 100 µM (inactive) in test [5]; > 100 µM (inactive) in test [6]. The GI50 was 98.4 µM (inactive) in [8]; > 100 µM (inactive) in test [9]; > 100 µM (inactive) in test [10]; 79.1 µM (inactive) in test [12]; 68.9 µM (inactive) in test [13]; > 100 µM in test [14]. Also, the GI50 is > 100 µM (inactive) in [15]; > 100 µM (inactive) in test [16]; > 100 µM (inactive) in test [17]; 28.6 µM (inactive) in test [18]; > 100 µM (inactive) in test [20].

For the compound `CC(=O)C1=C(C)N(c2ccc(C)cc2)C2(O)C3=C(C(=O)c4ccccc4C3=O)C(O)=CC12Cl` (stereo not given), the GI50 in test [1] is 12.8 µM (inactive); in [19], 14.1 µM (inactive); in [2], 12.2 µM (inactive); in test [3], 23.6 µM (inactive); in test [4], 15.4 µM (inactive); in test [5], 4.31 µM (inactive). In addition, the GI50 in test [6] is 6.92 µM (inactive); in test [7] it was 54.1 µM (inactive); in test [8], 5.11 µM (inactive); in [9] it was 7.43 µM (inactive); in test [10] it was 12.7 µM (inactive); in [11], 43 µM (inactive). For the same compound, the GI50 is 32.2 µM (inactive) in [12]; 17.1 µM (inactive) in test [13]; 19.8 µM in test [14]; 26.7 µM (inactive) in [16]; 9.86 µM (inactive) in test [17]; 15 µM (inactive) in test [18]. The GI50 in test [20] was 5.65 µM (inactive).

For the compound `C=C(C)C(=O)OC1CC2=CC(CC3(C)OC3C3OC(=O)C(=C)C13)OC2=O` (stereo not given), the GI50 is 18.5 µM (inactive) in test [1]; 9.66 µM (inactive) in test [19]; 10.9 µM (inactive) in [2]; 20.7 µM (inactive) in test [3]; 5.41 µM (inactive) in test [4]; 1.12 µM (active) in test [5]. Besides, the GI50 in test [6] was 16.9 µM (inactive); in test [7], 15 µM (inactive); in test [8], 9.18 µM (inactive); in test [10], 15.4 µM (inactive); in [11], 22.2 µM (inactive); in test [12], 22.4 µM (inactive). The GI50 in test [13] is 12.6 µM (inactive); in test [14], 8.07 µM; in test [15] it was > 10 µM (inactive); in test [16], 4.67 µM (inactive); in test [17], 2.24 µM (inactive); in test [18], 11.8 µM (inactive).

Regarding `NNC(=O)c1ccccc1Nc1nc(-c2cccs2)nc2ccc(Br)cc12`, the GI50 in test [1] is 53.3 µM (inactive); in test [19] it was 55 µM (inactive); in [2], > 100 µM (inactive); in test [3] it was 31.1 µM (inactive); in [4], > 100 µM (inactive); in [5], 71.3 µM (inactive). Further, the GI50 in test [6] is 74 µM (inactive); in test [7] it was > 100 µM (inactive); in test [8], > 100 µM (inactive); in test [9] it was 77.6 µM (inactive); in test [10] it was > 100 µM (inactive); in test [11], > 100 µM (inactive). Further, the GI50 is > 100 µM (inactive) in test [12]; 6.7 µM (inactive) in [13]; 14.7 µM in [14]; 47.8 µM (inactive) in test [16]; > 100 µM (inactive) in test [17]; 84.1 µM (inactive) in [18]. Also, the GI50 in test [20] is > 100 µM (inactive).

Consider `Nc1ncn(C/C=C/c2ccccc2)c2ncnc1-2`, for which the GI50 in test [1], in test [19], in test [2], in [3], in [4] and in test [6] was > 100 µM (inactive) throughout. The GI50 was 32.4 µM (inactive) in test [7]; > 100 µM (inactive) in test [8]; 8.93 µM (inactive) in [9]; > 100 µM (inactive) in test [10]; > 100 µM (inactive) in [12]; > 100 µM (inactive) in test [13]. In addition, the GI50 in [14] was > 100 µM; in test [15] it was > 100 µM (inactive); in test [16], > 100 µM (inactive); in [17], > 100 µM (inactive); in [18], > 100 µM (inactive); in [20], > 100 µM (inactive).

These data come from ChEMBL document CHEMBL1201862, “PubChem BioAssay data set” (2004).
